{
  "source": "patent US20060252814A1",
  "about": "“Formulation comprising a betablocker and optionally a cholestrol-lowering agent” (AstraZeneca AB, priority 2000, published 2006)",
  "key": {"[1]": {"settings": "human, in vivo, 36 months", "experimental": "A large scale clinical trial was designed to investigate the effect of low dose betablocker metoprolol on the progression of carotid IMT versus placebo and clinical outcome measures during 36 months double-blind treatment in asymptomatic subjects with a carotid plaque. The study was a randomized, double blind, parallel group, placebo-controlled, single-center study.\nThe randomization procedure was performed by using a computer generated randomization scheme. Participants were, according to a factorial design, randomly assigned to one of four drug combination groups: placebo/placebo, metoprolol (25 mg o.d)/placebo, fluvastatin (40 mg o.d.)/placebo or metoprolol (25 mg o.d.)/fluvastatin (40 mg o.d.). The placebo was manufactured to exactly resemble the metoprolol CR/XL tablets (AstraZeneca AB, Mölndal, Sweden), and fluvastatin (Novartis Ltd, Basel, Switzerland) capsules, respectively.\nSafety and tolerability pattern during treatment with fluvastatin or metoprolol, was evaluated by comparing adverse events and laboratory findings to placebo. Death and incidence of major cardiovascular endpoints were monitored.\nEvery participant was seen four times during the first year (after one, three, six and twelve months) and every 6 months thereafter. Weight was obtained every six months and a fasting lipid profile (total cholesterol, LDL-lipoprotein, HDL-lipoprotein and triglycerides) was determined every year. Liver transaminases (AST, ALT) and creatine kinase (CK) were obtained at every visit during the first year and then every year thereafter. AST or ALT values ≧3 times, and CK values ≧10 times the upper limit of normal was considered elevated during the study. […] Subjects with high serum cholesterol or triglycerides were advised to a low-fat diet and if evidence of persistent high cholesterol values such subjects were referred to an independent specialist of lipid disorders without knowledge of the subjects randomization assignment. […]"}, "[2]": {"tested_on": "carotid bulb intima-media thickness in asymptomatic subjects with a carotid plaque", "experiment": "Carotid ultrasound, change in maximum intima-media thickness (IMTmax) in the carotid bulb (bifurcation), 36 months double-blind placebo-controlled trial", "assay_type": "in vivo, human", "settings": "for Bifurcation carotid IMTmean, Δ 18 months to baseline (± SD) / Bifurcation carotid IMTmean, Δ 36 months to baseline (± SD): mean change; for Bifurcation carotid IMTmean, 18 months (± SD): mean value at 18 months follow-up; for Bifurcation carotid IMTmean, 36 months (± SD): mean value at 36 months follow-up; for Bifurcation carotid IMTmean, Δ between groups at 36 months (95% CI): versus placebo", "from_the_text": "(§1) The study population consisted of asymptomatic men and women, aged 49 to 70 years, with a plaque in the right carotid artery. A random 50% of those who entered the study were invited to take part in a study on the epidemiology of carotid artery disease. 1548 subjects came to the enrolment examination (visit one) including medical history, physical examination, laboratory measurements and a two-dimensional B-mode ultrasound of the right carotid artery. Subjects with a qualifying lesion in the right carotid artery, and who had no contraindications to the study protocol were invited to take part. In all, 793 subjects were eligible for randomization. All participants provided written informed consent Major exclusion criteria were history of myocardial infarction, angina pectoris or stroke within the preceding three months, history of surgical intervention in the right carotid artery, regular use of beta-blockers or stating, blood pressure above 160 systolic or 95 mm Hg diastolic, hypercholesterolemia (>8.0 mmol/L), hyperglycemia requiring or suspected to require insulin treatment, and conditions which in the opinion of the investigator rendered the subject unsuitable for the trial. […] Death and incidence of major cardiovascular endpoints were monitored. […] Throughout the trial an Acuson 128 […] (Acuson, Mountain View, Calif.) with a 7 MHz transducer was used. The examination procedure and image analysis, as described elsewhere ([…] et al., Clin Physiol, 11:565-577, 1991; […] et al., Stroke, 28:2195-2200, 1997) was performed by specially trained sonographers certified upon completion of an extensive educational program (Berglund, et al., J Intern Med, 236:581-586, 1994). In brief, the right carotid bifurcation was scanned within a pre-defined window comprising three centimeters of the distal common carotid artery, the bifurcation and one centimeter of the internal and external carotid arteries, respectively, for the presence of plaques, defined as focal intima-media thickenings above 1.2 mm. Thickness of the intima-media complex was measured in the far wall according to the leading edge principle, using a specially designed computer-assisted image analyzing system based on automated detection of the echo structures, but with the option to make manual corrections by the operator. Each image was analyzed without knowledge of the subjects' randomization group. From previous experience (Furberg et al., Circulation, 90:1679-1687, 1994) it was anticipated that the annual carotid artery […] progression rate in the placebo group would be approximately 15 μm per year with a standard deviation of 30 μm. […] The primary effect variables, change in […], and […] Bulb, was analyzed in a linear model with change in IMT as dependent variable and with treatment as a factor. Baseline IMTs and time between measurements were included in the model as covariates."}, "[3]": {"tested_on": "cardiovascular (CVD) events in asymptomatic subjects with a carotid plaque", "experiment": "Incidence of cardiovascular events during follow-up", "assay_type": "in vivo, human", "settings": "metoprolol versus 13 cases placebo, p=0.055; fluvastatin versus 11 cases placebo, p=0.350", "from_the_text": "Death and incidence of major cardiovascular endpoints were monitored."}, "[4]": {"experiment": "Metabolic and physiological effects of treatment in the clinical trial", "assay_type": "in vivo, human", "experimental": "A large scale clinical trial was designed to investigate the effect of low dose betablocker metoprolol on the progression of carotid IMT versus placebo and clinical outcome measures during 36 months double-blind treatment in asymptomatic subjects with a carotid plaque. The study was a randomized, double blind, parallel group, placebo-controlled, single-center study. The randomization procedure was performed by using a computer generated randomization scheme. Participants were, according to a factorial design, randomly assigned to one of four drug combination groups: placebo/placebo, metoprolol (25 mg o.d)/placebo, fluvastatin (40 mg o.d.)/placebo or metoprolol (25 mg o.d.)/fluvastatin (40 mg o.d.). The placebo was manufactured to exactly resemble the metoprolol CR/XL tablets (AstraZeneca AB, […] , Sweden), and fluvastatin (Novartis Ltd, Basel, Switzerland) capsules, respectively. Every participant was seen four times during the first year (after one, three, six and twelve months) and every 6 months thereafter. Weight was obtained every six months and a fasting lipid profile (total cholesterol, LDL-lipoprotein, HDL-lipoprotein and triglycerides) was determined every year. Liver transaminases (AST, ALT) and creatine kinase (CK) were obtained at every visit during the first year and then every year thereafter. AST or ALT values ≧3 times, and CK values ≧10 times the upper limit of normal was considered elevated during the study. Carotid ultrasound investigation was performed at baseline and after 18 and 36 months treatment."}, "[5]": {"tested_on": "common carotid artery intima-media thickness in asymptomatic subjects with a carotid plaque", "experiment": "Carotid ultrasound, change in mean intima-media thickness (IMTmean) in the common carotid artery, 36 months double-blind placebo-controlled trial", "assay_type": "in vivo, human", "settings": "for Common carotid IMTmean, Δ 18 months to baseline (± SD) / Common carotid IMTmean, Δ 36 months to baseline (± SD): mean change; for Common carotid IMTmean, 18 months (± SD): mean value at 18 months follow-up, metoprolol 25 mg o.d. / fluvastatin 40 mg o.d., factorial groups; for Common carotid IMTmean, 36 months (± SD): mean value at 36 months follow-up; for Common carotid IMTmean, Δ between groups at 36 months (95% CI): versus placebo", "from_the_text": "as §1"}, "[6]": {"settings": "in comparison to the placebo group"}},
  "data": [
    {"smiles": "COCCc1ccc(OCC(O)CNC(C)C)cc1", "note": "(centres unmarked) [Metoprolol, metoprolol]", "values": [
      {"measurement": "Permanent withdrawal from randomized treatment", "setting": "[1]", "result": 15, "unit": "%"},
      {"measurement": "carotid IMTmaxBulb progression, mean difference of yearly change between groups", "setting": "[2]; after 18 months of treatment, 95% CI −94 to −23, p=0.004", "result": "−58", "unit": "μm"},
      {"measurement": "carotid IMTmaxBulb progression, mean difference of yearly change between groups", "setting": "[2]; after 36 months, subgroup with serum cholesterol at baseline, 95% CI −87 to −19, p=0.001", "result": "−53", "unit": "μm"},
      {"measurement": "carotid IMTmaxBulb progression, mean difference of yearly change between groups", "setting": "[2]; compared with placebo after 36 months of treatment, 95% CI −44 to −3, p=0.014", "result": "−23", "unit": "μm"},
      {"measurement": "Bifurcation carotid IMTmean, Δ 18 months to baseline (± SD)", "setting": "[2]", "result": "23 ± 325", "unit": "μm"},
      {"measurement": "Bifurcation carotid IMTmean, Δ 36 months to baseline (± SD)", "setting": "[2]", "result": "154 ± 411", "unit": "μm"},
      {"measurement": "Bifurcation carotid IMTmean, 18 months (± SD)", "setting": "[2]", "result": "1937 ± 572", "unit": "μm"},
      {"measurement": "Bifurcation carotid IMTmean, 36 months (± SD)", "setting": "[2]", "result": "2003 ± 624", "unit": "μm"},
      {"measurement": "Bifurcation carotid IMTmean, Δ between groups at 36 months (95% CI)", "setting": "[2]", "result": "−73 (−133 to −13) μm"},
      {"measurement": "CVD events during follow-up", "setting": "[3]", "result": 5, "unit": "cases"},
      {"measurement": "effect on other metabolic variables", "setting": "[4]; compared to the placebo group", "result": "no effect"},
      {"measurement": "change of blood pressure", "setting": "[4]; [6]", "result": "not significantly changed"},
      {"measurement": "change of lumen diameter", "setting": "[4]; [6]", "result": "not significantly changed"},
      {"measurement": "decrease of mean heart rate in comparison to the placebo group", "setting": "[4]; metoprolol 25 mg o.d.", "result": 2.5, "unit": "beats per min"},
      {"measurement": "increase of serum triglycerides compared to the placebo group", "setting": "[4]; metoprolol 25 mg o.d.", "result": 0.14, "unit": "mmol/L"},
      {"measurement": "reduced the rate of progression of IMTmean CCA compared with placebo", "setting": "[5]; after 36 months of treatment, result in words", "result": "not"},
      {"measurement": "Common carotid IMTmean, Δ 18 months to baseline (± SD)", "setting": "[5]", "result": "−5 ± 12", "unit": "μm"},
      {"measurement": "Common carotid IMTmean, Δ 36 months to baseline (± SD)", "setting": "[5]", "result": "22 ± 13", "unit": "μm"},
      {"measurement": "Common carotid IMTmean, 18 months (± SD)", "setting": "[5]", "result": "908 ± 205", "unit": "μm"},
      {"measurement": "Common carotid IMTmean, 36 months (± SD)", "setting": "[5]", "result": "934 ± 220", "unit": "μm"},
      {"measurement": "Common carotid IMTmean, Δ between groups at 36 months (95% CI)", "setting": "[5]", "result": "−2 (−20 to 17) μm"}
    ]},
    {"smiles": "CC(C)n1c(/C=C/C(O)CC(O)CC(=O)O)c(-c2ccc(F)cc2)c2ccccc21", "note": "(centres unmarked) [Fluvastatin, fluvastatin]", "values": [
      {"measurement": "frequency of transiently high liver enzymes", "setting": "[1]; female", "result": 10.2, "unit": "%"},
      {"measurement": "Permanent withdrawal from randomized treatment", "setting": "[1]", "result": 21, "unit": "%"},
      {"measurement": "Bifurcation carotid IMTmean, Δ 18 months to baseline (± SD)", "setting": "[2]", "result": "63 ± 334", "unit": "μm"},
      {"measurement": "Bifurcation carotid IMTmean, Δ 36 months to baseline (± SD)", "setting": "[2]", "result": "170 ± 374", "unit": "μm"},
      {"measurement": "Bifurcation carotid IMTmean, 18 months (± SD)", "setting": "[2]", "result": "1965 ± 554", "unit": "μm"},
      {"measurement": "Bifurcation carotid IMTmean, 36 months (± SD)", "setting": "[2]", "result": "2095 ± 652", "unit": "μm"},
      {"measurement": "Bifurcation carotid IMTmean, Δ between groups at 36 months (95% CI)", "setting": "[2]", "result": "−41 (−102 to 19) μm"},
      {"measurement": "CVD events during follow-up", "setting": "[3]", "result": 7, "unit": "cases"},
      {"measurement": "IMTmean CCA progression, mean difference of yearly change between groups", "setting": "[5]; compared with placebo after 36 months of treatment, 95% CI −15 to −3, p=0.002", "result": "−9", "unit": "μm"},
      {"measurement": "Common carotid IMTmean, Δ 18 months to baseline (± SD)", "setting": "[5]", "result": "−5 ± 11", "unit": "μm"},
      {"measurement": "Common carotid IMTmean, Δ 36 months to baseline (± SD)", "setting": "[5]", "result": "11 ± 11", "unit": "μm"},
      {"measurement": "Common carotid IMTmean, 18 months (± SD)", "setting": "[5]", "result": "890 ± 196", "unit": "μm"},
      {"measurement": "Common carotid IMTmean, 36 months (± SD)", "setting": "[5]", "result": "905 ± 205", "unit": "μm"},
      {"measurement": "Common carotid IMTmean, Δ between groups at 36 months (95% CI)", "setting": "[5]", "result": "−25 (−44 to −7) μm"}
    ]}
  ]
}
